Results: a compilation of properties of binary mixtures (doi:10.1021/acs.jced.3c00537)

Experiment: xn = mol fraction of the nth substance listed
Settings: 100 kPa

CCO + COP(=O)([O-])OC.Cn1cc[n+](C)c1
x2 = 0
Settings	viscosity [mPa·s]
293.15 K	1.18
303.15 K	0.976
313.15 K	0.815
318.15 K	0.75
323.15 K	0.694
333.15 K	0.603
338.15 K	0.564

CCO + CC[n+]1ccn(C)c1.COP(=O)([O-])OC
x2 = 0
Settings	viscosity [mPa·s]
293.15 K	1.18
303.15 K	0.976
308.15 K	0.89
313.15 K	0.815
318.15 K	0.75
323.15 K	0.694
333.15 K	0.603
338.15 K	0.564

COP(=O)([O-])OC.Cn1cc[n+](C)c1 + CCO
viscosity [mPa·s]
Settings	293.15 K	298.15 K	303.15 K	308.15 K	313.15 K	318.15 K	323.15 K	328.15 K	333.15 K	338.15 K
x1 = 0.1005	–	2.91	–	2.38	2.15	1.9	1.74	1.54	–	1.22
x1 = 0.2006	6.54	5.92	–	4.71	4.29	3.89	3.5	3.19	2.93	2.67
x1 = 0.3005	13.17	11.4	–	8.77	7.8	–	–	5.87	–	5.14
x1 = 0.4031	24.71	20.72	17.29	14.75	–	11.17	9.96	8.98	8.12	7.43
x1 = 0.4996	42.18	33.84	27.62	22.9	19.31	16.65	14.39	–	11.07	–
x1 = 0.6043	70.07	54.83	43.41	35.07	28.85	24.13	20.39	17.54	15.17	13.3
x1 = 0.7009	111.3	–	64.5	50.89	40.71	–	–	22.99	–	16.89
x1 = 0.797	–	118.8	89.5	69.03	–	43.34	–	–	24.3	20.61
x1 = 0.8995	235.4	–	125.2	–	72.72	58.89	–	36.94	–	25.28
x1 = 1	331	232.5	165.8	–	93.5	–	57.09	45.49	36.7	30.05

CC[n+]1ccn(C)c1.COP(=O)([O-])OC + CCO
viscosity [mPa·s]
Settings	293.15 K	298.15 K	303.15 K	308.15 K	313.15 K	318.15 K	323.15 K	328.15 K	333.15 K	338.15 K
x1 = 0.1004	3.47	3.1	2.77	2.5	2.28	2.09	1.95	1.85	–	1.55
x1 = 0.2032	7.38	6.54	5.8	5.17	4.66	4.26	3.94	3.61	3.26	3.07
x1 = 0.3007	14.45	12.4	–	9.4	–	–	6.75	6.22	5.73	5.32
x1 = 0.3994	26.4	22.01	18.49	15.67	13.43	11.74	10.36	9.26	8.31	7.61
x1 = 0.5013	46.78	–	30.72	25.48	21.4	18.27	–	13.67	11.97	10.68
x1 = 0.5994	79.2	61.56	–	38.81	–	26.33	22.2	19.04	16.4	14.35
x1 = 0.7006	–	–	72.82	57.48	45.56	36.84	30.39	–	–	18.37
x1 = 0.8011	176.7	–	106.5	80.4	62.91	48.34	–	31.5	26.15	21.94
x1 = 0.8988	241	192.2	140.5	106.5	78.6	62.43	49.31	39.47	32.04	–
x1 = 1	348	247	178.9	–	–	79.1	62.91	50.39	–	33.59
